A short description of data set [1]: Stability of calcitriol in ethanol (HPLC assay against a reference). In kind it is physicochemical. To be noted: 30 ppm calcitriol in absolute ethanol, 0.02% BHT. How it is done: The stability of calcitriol was tested in various solvents, including ethanol 100 and a 75%/25% ethanol 100/cyclomethicone mixture. a) Stability of Calcitriol in Ethanol: A 30 ppm solution of calcitriol in absolute ethanol to 100% is prepared in the presence of 0.02% of butylated hydroxytoluene (BHT). At the starting time (T0) the calcitriol concentration is taken to be 100%.

Data set [2] can be described thus: Stability of calcitriol in the (ethanol/cyclopentasiloxane) mixture (HPLC assay against a reference). In kind it is physicochemical. To be noted: 30 ppm calcitriol, 0.02% BHT. As for the experimental part: The stability of calcitriol was tested in various solvents, including ethanol 100 and a 75%/25% ethanol 100/cyclomethicone mixture. b) Stability of Calcitriol in the (Ethanol/Cyclopentasiloxane) Mixture A 30 ppm solution of calcitriol in absolute ethanol to 100% is prepared in the presence of 0.02% of BHT. At the starting time (TO) the calcitriol concentration is taken to be 100%.

In the case of `C=C1/C(=C\C=C2/CCC[C@]3(C)[C@@H]([C@H](C)CCCC(C)(C)O)CC[C@@H]23)C[C@@H](O)C[C@@H]1O` [calcitriol], the “calcitriol concentration (T0 taken to be 100%)” value is 97.7% in data set [1] (+4° C., T1 week); 98.6% in data set [1] (+4° C., T2 weeks); 98.1% in data set [1] (+4° C., T3 weeks); 97.7% in data set [1] (+4° C., T4 weeks); 93.4% in data set [1] (+30° C., T2 weeks); 93.0% in data set [1] (+30° C., T4 weeks). Moreover, the “calcitriol concentration (T0 taken to be 100%)” value in data set [1] (−18° C., T1 week) was determined as 100.9%; in data set [1] (−18° C., T2 weeks), 100.5%; in data set [1] (−18° C., T3 weeks), 99.5%; in data set [1] (−18° C., T4 weeks), 99.5%; in data set [2] (+4° C., T2 weeks), 99.2%; in data set [2] (+4° C., T3 weeks), 99.6%. Also, the “calcitriol concentration (T0 taken to be 100%)” value in data set [2] (+4° C., T4 weeks) worked out at 97.5%; in data set [2] (+30° C., T2 weeks), 93.8%; in data set [2] (+30° C., T4 weeks) it was 93.3%; in data set [2] (−18° C., T2 weeks), 100.4%; in data set [2] (−18° C., T3 weeks), 101.3%; in data set [2] (−18° C., T4 weeks), 99.2%.

Source of the values: patent US20050282788A1, “Pharmaceutical compositions comprising silicones and two solubilized active principles” (GALDERMA S.A., priority 2004, published 2005).
